Test results reported in patent US20160122320A1, “USEFUL COMBINATIONS OF MONOBACTAM ANTIBIOTICS WITH BETA-LACTAMASE INHIBITORS” (Basilea Pharmaceutica AG, priority 2005, published 2016).
Several values for one entry are separate records, joined by “and”; a condition that tells them apart may be missing. Identical values can stand only once. Counter-ions that a name gives are not always drawn.

Columns and labels:
Assay in all cases: MIC, NCCLS broth microdilution
Type in all cases: cell-based
Conditions in all cases: for MIC of antibiotic at fixed inhibitor concentration (4 mg/L): MIC of antibiotic compound 1 with the labelled bridged monobactam of formula II and clavulanate, 4 mg/L each; for MIC of antibiotic: antibiotic alone, no inhibitor
Acinetobacter sp. J2 = test system: Acinetobacter sp. J2
[1] = test system: Pseudomonas aeruginosa MK1184
[2] = test system: Pseudomonas aeruginosa 1973E
Experimental: Antimicrobial activity of the compounds and of their combinations was determined against a selection of organisms according to the standard procedures described by the National Committee for Clinical Laboratory Standards (National Committee for Clinical Laboratory. Standards (2000). Methods for Dilution Antimicrobial Susceptibility Tests for Bacteria That Grow Aerobically-Fifth Edition: Approved Standard M7-A5. NCCLS, Wayne, Pa., USA).
In all cases the final concentration of DMSO incubated with the bacteria is less than or equal to 1%. […] Plates were incubated overnight at an appropriate temperature (30° C. or 37° C.) and optical densities assessed by eye. The MIC value is defined as the lowest compound concentration completely inhibiting visible growth of the test organism. When combinations between compounds of formula I with compounds of formula II and are evaluated the compounds of formula I are tested in dilution series as described above while the compounds of formula II and III-XIII were present in all wells at a constant concentration of 4 μg/mL each.

Enterobacter cloacae P99 = test system: Enterobacter cloacae P99
[3] = test system: Klebsiella pneumoniae CF104
Serratia marcescens S6 = test system: Serratia marcescens S6
[4] = test system: Stenotrophomonas malthophilia 1AC736
[5] = Stenotrophomonas malthophilia 1AC736
[6] = Acinetobacter baumannii J2, with 102 and clavulanate
[7] = with clavulanate (clavulanic acid)
[8] = Stenotrophomonas maltophilia 1AC736
[9] = Stenotrophomonas maltophilia 1AC736, with 102 and clavulanate

SMILES: O=C(NCc1cccs1)N1CC[C@@H]2[C@H]1C(=O)N2S(=O)(=O)[O-].[Na+] [Compound 314]
- MIC of antibiotic at fixed inhibitor concentration (4 mg/L) (Acinetobacter sp. J2; Acinetobacter sp. J2): 4 µg/mL
- MIC of antibiotic at fixed inhibitor concentration (4 mg/L) [1]: >32 µg/mL
- MIC of antibiotic at fixed inhibitor concentration (4 mg/L) [2]: 4 µg/mL
- MIC of antibiotic at fixed inhibitor concentration (4 mg/L) (Enterobacter cloacae P99): 32 µg/mL
- MIC of antibiotic at fixed inhibitor concentration (4 mg/L) [3]: 1 µg/mL
- MIC of antibiotic at fixed inhibitor concentration (4 mg/L) (Serratia marcescens S6): 0.25 µg/mL
- MIC of antibiotic at fixed inhibitor concentration (4 mg/L) [4, 5]: 0.125 µg/mL

SMILES: CC1C(NC(=O)C(=NOCc2cc(=O)c(O)cn2O)c2cccc(N)n2)C(=O)N1S(=O)(=O)O (centres unmarked) [Compound 20]
- MIC of antibiotic (Acinetobacter sp. J2; Acinetobacter baumannii J2): >32 µg/mL
- MIC of antibiotic at fixed inhibitor concentration of 4 mg/L (Acinetobacter sp. J2; [6]): >32 µg/mL
- MIC of antibiotic at fixed inhibitor concentration of 4 mg/L (Acinetobacter sp. J2; Acinetobacter baumannii J2, with 206 and clavulanate): >32 µg/mL
- MIC of antibiotic at fixed inhibitor concentration of 4 mg/L (Acinetobacter sp. J2; Acinetobacter baumannii J2, with 501): <0.06 µg/mL
- MIC of antibiotic at fixed inhibitor concentration of 4 mg/L (Acinetobacter sp. J2; Acinetobacter baumannii J2, with clavulanate (clavulanic acid)): >32 µg/mL
- MIC of antibiotic [1]: >32 µg/mL
- MIC of antibiotic at fixed inhibitor concentration of 4 mg/L ([1]; with 102 and clavulanate): 8 µg/mL
- MIC of antibiotic at fixed inhibitor concentration of 4 mg/L ([1]; with 206 and clavulanate): >32 µg/mL
- MIC of antibiotic at fixed inhibitor concentration of 4 mg/L ([1]; with 501): >32 µg/mL
- MIC of antibiotic at fixed inhibitor concentration of 4 mg/L [1, 7]: >32 µg/mL
- MIC of antibiotic [2]: 16 µg/mL
- MIC of antibiotic at fixed inhibitor concentration of 4 mg/L ([2]; with 102 and clavulanate): 32 µg/mL
- MIC of antibiotic at fixed inhibitor concentration of 4 mg/L ([2]; with 206 and clavulanate): 16 µg/mL
- MIC of antibiotic at fixed inhibitor concentration of 4 mg/L ([2]; with 501): 16 µg/mL
- MIC of antibiotic at fixed inhibitor concentration of 4 mg/L [2, 7]: 16 µg/mL
- MIC of antibiotic (Enterobacter cloacae P99): >32 µg/mL
- MIC of antibiotic at fixed inhibitor concentration of 4 mg/L (Enterobacter cloacae P99; with 102 and clavulanate): 16 µg/mL
- MIC of antibiotic at fixed inhibitor concentration of 4 mg/L (Enterobacter cloacae P99; with 206 and clavulanate): 16 µg/mL
- MIC of antibiotic at fixed inhibitor concentration of 4 mg/L (Enterobacter cloacae P99; with 501): >32 µg/mL
- MIC of antibiotic at fixed inhibitor concentration of 4 mg/L (Enterobacter cloacae P99; [7]): >32 µg/mL
- MIC of antibiotic [3]: >32 µg/mL
- MIC of antibiotic at fixed inhibitor concentration of 4 mg/L ([3]; with 102 and clavulanate): 2 µg/mL
- MIC of antibiotic at fixed inhibitor concentration of 4 mg/L ([3]; with 206 and clavulanate): 4 µg/mL
- MIC of antibiotic at fixed inhibitor concentration of 4 mg/L ([3]; with 501): 16 µg/mL
- MIC of antibiotic at fixed inhibitor concentration of 4 mg/L [3, 7]: 32 µg/mL
- MIC of antibiotic (Serratia marcescens S6): 4 µg/mL
- MIC of antibiotic at fixed inhibitor concentration of 4 mg/L (Serratia marcescens S6; with 102 and clavulanate): 0.5 µg/mL
- MIC of antibiotic at fixed inhibitor concentration of 4 mg/L (Serratia marcescens S6; with 206 and clavulanate): 0.5 µg/mL
- MIC of antibiotic at fixed inhibitor concentration of 4 mg/L (Serratia marcescens S6; with 501): 2 µg/mL
- MIC of antibiotic at fixed inhibitor concentration of 4 mg/L (Serratia marcescens S6; [7]): 2 µg/mL
- MIC of antibiotic [4, 8]: 4 µg/mL
- MIC of antibiotic at fixed inhibitor concentration of 4 mg/L [4, 9]: 0.25 µg/mL
- MIC of antibiotic at fixed inhibitor concentration of 4 mg/L ([4]; Stenotrophomonas maltophilia 1AC736, with 206 and clavulanate): 0.5 µg/mL
- MIC of antibiotic at fixed inhibitor concentration of 4 mg/L ([4]; Stenotrophomonas maltophilia 1AC736, with 501): 0.25 µg/mL
- MIC of antibiotic at fixed inhibitor concentration of 4 mg/L ([4]; Stenotrophomonas maltophilia 1AC736, with clavulanate (clavulanic acid)): 0.25 µg/mL

SMILES: NC(=O)c1cccc(NC(=O)N2CC[C@@H]3[C@H]2C(=O)N3S(=O)(=O)[O-])c1.[Na+] [Compound 305]
- MIC of antibiotic at fixed inhibitor concentration (4 mg/L) (Acinetobacter sp. J2; Acinetobacter sp. J2): >32 µg/mL
- MIC of antibiotic at fixed inhibitor concentration (4 mg/L) [1]: >32 µg/mL
- MIC of antibiotic at fixed inhibitor concentration (4 mg/L) [2]: 4 µg/mL
- MIC of antibiotic at fixed inhibitor concentration (4 mg/L) (Enterobacter cloacae P99): 4 µg/mL
- MIC of antibiotic at fixed inhibitor concentration (4 mg/L) [3]: 4 µg/mL
- MIC of antibiotic at fixed inhibitor concentration (4 mg/L) (Serratia marcescens S6): 0.25 µg/mL
- MIC of antibiotic at fixed inhibitor concentration (4 mg/L) [4, 5]: 0.25 µg/mL

SMILES: O=C(Nc1cccc(O)c1)N1CC[C@@H]2[C@H]1C(=O)N2S(=O)(=O)[O-].[Na+] [Compound 317]
- MIC of antibiotic at fixed inhibitor concentration (4 mg/L) (Acinetobacter sp. J2; Acinetobacter sp. J2): 16 µg/mL
- MIC of antibiotic at fixed inhibitor concentration (4 mg/L) [1]: >32 µg/mL
- MIC of antibiotic at fixed inhibitor concentration (4 mg/L) [2]: 8 µg/mL
- MIC of antibiotic at fixed inhibitor concentration (4 mg/L) (Enterobacter cloacae P99): 8 µg/mL
- MIC of antibiotic at fixed inhibitor concentration (4 mg/L) [3]: 0.5 µg/mL
- MIC of antibiotic at fixed inhibitor concentration (4 mg/L) (Serratia marcescens S6): 0.25 µg/mL
- MIC of antibiotic at fixed inhibitor concentration (4 mg/L) [4, 5]: 0.125 µg/mL

SMILES: C[C@@H](O)[C@H]1C(=O)N2C(C(=O)O)=C(S[C@@H]3CN[C@H](C(=O)N(C)C)C3)[C@H](C)[C@H]12 [Meropenem, meropenem, reference compound]
- MIC of antibiotic (Acinetobacter sp. J2; Acinetobacter baumannii J2): 2 µg/mL
- MIC of antibiotic (Acinetobacter sp. J2; Acinetobacter sp. J2): 2 µg/mL
- MIC of antibiotic [1]: 2 µg/mL
- MIC of antibiotic [2]: 1 µg/mL
- MIC of antibiotic (Enterobacter cloacae P99): 0.13 µg/mL and 0.125 µg/mL
- MIC of antibiotic [3]: <0.06 µg/mL
- MIC of antibiotic (Serratia marcescens S6): 16 µg/mL
- MIC of antibiotic [4, 5]: 32 µg/mL
- MIC of antibiotic [4, 8]: 32 µg/mL

SMILES: COC(=O)c1ccc[n+](CC(=O)N2CC[C@@H]3[C@H]2C(=O)N3S(=O)(=O)[O-])c1C [Compound 115, (1S,5R)-2-{2-[3-(methoxycarbonyl)-2-methylpyridinium]acetyl}-7-oxo-2,6-diazabicyclo[3.2.0]heptane-6-sulfonate, inner salt]
- MIC of antibiotic at fixed inhibitor concentration (4 mg/L) (Acinetobacter sp. J2; Acinetobacter sp. J2): >32 µg/mL
- MIC of antibiotic at fixed inhibitor concentration (4 mg/L) [1]: 16 µg/mL
- MIC of antibiotic at fixed inhibitor concentration (4 mg/L) [2]: 4 µg/mL
- MIC of antibiotic at fixed inhibitor concentration (4 mg/L) (Enterobacter cloacae P99): 32 µg/mL
- MIC of antibiotic at fixed inhibitor concentration (4 mg/L) [3]: 0.125 µg/mL
- MIC of antibiotic at fixed inhibitor concentration (4 mg/L) (Serratia marcescens S6): 0.25 µg/mL
- MIC of antibiotic at fixed inhibitor concentration (4 mg/L) [4, 5]: 0.125 µg/mL

SMILES: Nc1nc(CC(=O)N2CC[C@@H]3[C@H]2C(=O)N3S(=O)(=O)O)cs1 [Compound 401]
- MIC of antibiotic at fixed inhibitor concentration (4 mg/L) (Acinetobacter sp. J2; Acinetobacter sp. J2): 4 µg/mL
- MIC of antibiotic at fixed inhibitor concentration (4 mg/L) [1]: >32 µg/mL
- MIC of antibiotic at fixed inhibitor concentration (4 mg/L) [2]: 8 µg/mL
- MIC of antibiotic at fixed inhibitor concentration (4 mg/L) (Enterobacter cloacae P99): 16 µg/mL
- MIC of antibiotic at fixed inhibitor concentration (4 mg/L) [3]: 0.5 µg/mL
- MIC of antibiotic at fixed inhibitor concentration (4 mg/L) (Serratia marcescens S6): 0.125 µg/mL
- MIC of antibiotic at fixed inhibitor concentration (4 mg/L) [4, 5]: 0.125 µg/mL

SMILES: COC(=O)c1cc(C)c[n+](CC(=O)N2CC[C@@H]3[C@H]2C(=O)N3S(=O)(=O)[O-])c1 [Compound 114, (1S,5R)-2-{2-[3-(methoxycarbonyl)-5-methylpyridinium]acetyl}-7-oxo-2,6-diazabicyclo[3.2.0]heptane-6-sulfonate, inner salt]
- MIC of antibiotic at fixed inhibitor concentration (4 mg/L) (Acinetobacter sp. J2; Acinetobacter sp. J2): >32 µg/mL
- MIC of antibiotic at fixed inhibitor concentration (4 mg/L) [1]: 16 µg/mL
- MIC of antibiotic at fixed inhibitor concentration (4 mg/L) [2]: 4 µg/mL
- MIC of antibiotic at fixed inhibitor concentration (4 mg/L) (Enterobacter cloacae P99): 32 µg/mL
- MIC of antibiotic at fixed inhibitor concentration (4 mg/L) [3]: 0.125 µg/mL
- MIC of antibiotic at fixed inhibitor concentration (4 mg/L) (Serratia marcescens S6): 0.25 µg/mL
- MIC of antibiotic at fixed inhibitor concentration (4 mg/L) [4, 5]: 0.125 µg/mL

SMILES: NC(=O)OCC1C(NC(=O)C(=NOCc2cc(=O)c(O)cn2O)c2csc(N)n2)C(=O)N1OS(=O)(=O)O (centres unmarked) [Compound 25]
- MIC of antibiotic (Acinetobacter sp. J2; Acinetobacter baumannii J2): >32 µg/mL
- MIC of antibiotic at fixed inhibitor concentration of 4 mg/L (Acinetobacter sp. J2; [6]): 16 µg/mL
- MIC of antibiotic at fixed inhibitor concentration of 4 mg/L (Acinetobacter sp. J2; Acinetobacter baumannii J2, with 324 and clavulanate): >32 µg/mL
- MIC of antibiotic [1]: >32 µg/mL
- MIC of antibiotic at fixed inhibitor concentration of 4 mg/L ([1]; with 102 and clavulanate): 4 µg/mL
- MIC of antibiotic at fixed inhibitor concentration of 4 mg/L ([1]; with 324 and clavulanate): 8 µg/mL
- MIC of antibiotic [2]: 16 µg/mL
- MIC of antibiotic at fixed inhibitor concentration of 4 mg/L ([2]; with 102 and clavulanate): 4 µg/mL
- MIC of antibiotic at fixed inhibitor concentration of 4 mg/L ([2]; with 324 and clavulanate): 8 µg/mL
- MIC of antibiotic (Enterobacter cloacae P99): >32 µg/mL
- MIC of antibiotic at fixed inhibitor concentration of 4 mg/L (Enterobacter cloacae P99; with 102 and clavulanate): 8 µg/mL
- MIC of antibiotic at fixed inhibitor concentration of 4 mg/L (Enterobacter cloacae P99; with 324 and clavulanate): 4 µg/mL
- MIC of antibiotic [3]: >32 µg/mL
- MIC of antibiotic at fixed inhibitor concentration of 4 mg/L ([3]; with 102 and clavulanate): 0.5 µg/mL
- MIC of antibiotic at fixed inhibitor concentration of 4 mg/L ([3]; with 324 and clavulanate): 0.5 µg/mL
- MIC of antibiotic (Serratia marcescens S6): 1 µg/mL
- MIC of antibiotic at fixed inhibitor concentration of 4 mg/L (Serratia marcescens S6; with 102 and clavulanate): 1 µg/mL
- MIC of antibiotic at fixed inhibitor concentration of 4 mg/L (Serratia marcescens S6; with 324 and clavulanate): 1 µg/mL
- MIC of antibiotic [4, 8]: 4 µg/mL
- MIC of antibiotic at fixed inhibitor concentration of 4 mg/L [4, 9]: 1 µg/mL
- MIC of antibiotic at fixed inhibitor concentration of 4 mg/L ([4]; Stenotrophomonas maltophilia 1AC736, with 324 and clavulanate): 1 µg/mL
